Measurements published in ChEMBL document CHEMBL5036338, “Structural Insights into the Inhibition of Undecaprenyl Pyrophosphate Synthase from Gram-Positive Bacteria” (2021).
Active and inactive are the calls of the source. The rule behind the calls is not given here.

How the values were obtained:
Staphylococcus aureus [1] = assay: Synergistic antibacterial activity against community acquired methicillin resistant Staphylococcus aureus USA300 assessed as fractional inhibitory concentration index in presence of cefuroxime incubated for 18 hrs by checkerboard broth microdilution assay; assay type: functional
Staphylococcus aureus [2] = assay: (§1) Synergistic antibacterial activity against community acquired methicillin resistant Staphylococcus aureus USA300 assessed as potentiation of cefuroxime-induced antibacterial activity by measuring cefuroxime MIC incubated for 18 hrs by checkerboard broth microdilution assay; assay type: functional
Staphylococcus aureus [3] = assay: Synergistic antibacterial activity against community acquired methicillin resistant Staphylococcus aureus USA300 assessed as fractional inhibitory concentration incubated for 18 hrs by checkerboard broth microdilution assay; assay type: functional
Staphylococcus aureus [4] = assay: as §1, with “fractional inhibitory concentration” for “MIC”; assay type: functional
Staphylococcus aureus [5] = assay: Synergistic antibacterial activity against community acquired methicillin resistant Staphylococcus aureus USA300 incubated for 18 hrs by checkerboard broth microdilution assay; assay type: functional
Staphylococcus aureus [6] = assay: Inhibition of Staphylococcus aureus UPPS using FPP and IPP as substrates preincubated for 20 mins followed by substrate addition

Structure (SMILES) | fractional inhibitory concentration index (FICI) (Staphylococcus aureus [1]) | MIC (Staphylococcus aureus [2]) [mg/L] | FIC (Staphylococcus aureus [3]) | FIC (Staphylococcus aureus [4]) | MIC (Staphylococcus aureus [5]) [mg/L] | inhibition (Staphylococcus aureus [6])
Cc1cc(N2CCCCCCC2)n2ncc(-c3ccc(F)cc3)c2n1 | 0.0625 | > 32 | 0.0312 | 0.0312 | > 128 | 
Cc1cc(N2CCCCCC2)n2ncc(-c3ccc(F)cc3)c2n1 | 0.0781 | > 32 | 0.0625 | 0.0156 | > 128 | Active
Cc1cc(N2CCOCC2)n2ncc(-c3ccc(F)cc3)c2n1 | 0.156 | > 32 | 0.03125 | 0.125 | > 128 | 
CCCc1cc(N2CCCCCC2)n2ncc(-c3ccc(F)cc3)c2n1 | 0.0625 | > 32 | 0.0312 | 0.0312 | > 128 | 
Cc1cc(N2CCCCCC2)n2ncc(-c3cccc(F)c3)c2n1 | 0.0937 | > 32 | 0.0625 | 0.0312 | > 128 | 
CCc1cc(N2CCCCCCC2)n2ncc(-c3ccc(F)cc3)c2n1 | 0.1875 | > 32 | 0.125 | 0.0625 | > 128 | 
CCc1cc(N2CCCCCC2)n2ncc(-c3ccc(F)cc3)c2n1 | 0.0468 | > 32 | 0.0312 | 0.0156 | > 128 | 
CCN(CC)CCOc1ccc(/C(=C(/Cl)c2ccccc2)c2ccccc2)cc1 [ENCLOMIPHENE] | 0.313 | 256 | 0.25 | 0.063 | 16 | 
